Assay results taken from patent US20250100977A1, “MERCAPTOPYRIMIDINE COMPOUNDS THAT INHIBIT NONHOMOLOGOUS END JOINING AND METHODS THEREOF” (INDIAN INSTITUTE OF SCIENCE, priority 2021, published 2025).
Values joined by “and” are separate entries in the source; they are usually repeats but may differ in a detail not shown here. Identical values can stand only once. Like-named read-outs stand apart in the source and are kept apart here.

Legend:
53BP1 foci in N114 = 53BP1 foci in N114 cells; format: cell-based; conditions: 24 h, SCR116 2, 5 μM, SCR132 1, 2 μM
Procedure: FIG. 8(A-B) depicts accumulation of DSBs inside cells following treatment with the compounds. A. Representative images for HeLa cells subjected to neutral comet assay following treatment with SCR116 and SCR132 for 24 h. […] FIG. 8C, D are representative images for Nalm6 cells (C) and N114 cells (D) following treatment with SCR116 and SCR132 for 24 h. and FIG. 8E, F are scatter plot depicting quantification of percentage of 53BP1 foci treated with SCR116 (2, 5 μM) and SCR132 (1, 2 μM) in Nalm6 and N114.

rat testicular extracts = test: Inhibition of end joining of rat testicular extracts (NHEJ); format: biochemical; conditions: for Inhibition of end joining (in words): 200 μM; for Inhibition of end joining (no joined product observed): 500 μM, rat testicular extract; for End joining after Ligase IV added back to inhibited testicular extract: complementation with purified Ligase IV/XRCC4
Procedure: The compounds of the present invention were tested for their effects on inhibition of DNA end joining reactions using rat tissue extracts and purified DNA Ligase IV/XRCC4. Rat testicular extracts were prepared from testes of 4-6 week old male Wistar rats, Rattus norvegicus using ammonium sulphate precipitation method. To determine end joining of cell-free extracts, radiolabeled double-stranded (ds) oligomeric DNA substrate was incubated with rat testicular extract at 25° C. in suitable NHEJ buffer. Extracts were incubated for 30 min with the compounds of Formula I (01-41, 500 μM) as prepared in Example 1, and then radioactive DNA substrate was added to the reaction mixture and incubated for 1 h at 25° C. Reactions were stopped using EDTA, and products were purified using phenol: chloroform extraction and loaded on denaturing polyacrylamide gel. […] Joining efficiency was calculated using the intensity of product bands (150 bp or higher) in individual lanes in Multi Gauge software as compared to control (lanes 2,3). Lane 1 denotes radioactive substrate in absence of protein or inhibitor, while M denotes radiolabeled 50 bp DNA ladder.
Effects of these compounds on NHEJ and Ligase IV mediated joining were evaluated (FIG. 4A-K). The reactions were terminated by EDTA (10 mM), products were purified using phenol/chloroform, precipitated with chilled ethanol and glycogen, and resolved on 8% denaturing PAGE. The gel was dried, exposed, and signal was detected using phosphor Imager FLA9000 (Fuji, Japan), and quantified in MultiGauge software expressed as Photo Stimulated Luminescence Units (PSLU). Inhibition of end joining was reported at 200 μM and 100 μM, respectively for SCR116 and SCR132 (FIGS. 4A, B, C and D), with >50% inhibition at 200 and 100 μM concentrations, respectively. […] FIG. 4K depict the purification profile of Ligase IV and XRCC4. Further FIGS. 4L-M represent inhibition of end joining catalysed by (FIG. 4L) purified Ligase III/XRCCI in presence of SCR116 and SCR132 (50, 100, 200, 500, 1000 μM) and (FIG. 4M) by purified Ligase I in presence of increasing concentrations of SCR116 and SCR132 (10, 50, 100, 200, 500, 1000 μM).

HeLa = test: Cytotoxicity (viable cells) in HeLa; format: cell-based; conditions: read-out: IC50 in cancer cell lines, HeLa
Procedure: The compounds of the present invention were screened initially in leukemic and cervical cancer cell lines (Table 1). […] In cervical cancer cell line HeLa, IC50 was 5 and 2 μM, respectively for SCR116 and SCR132 (FIG. 5A-B).
(§1) Ligase IV specificity of the compounds of the present invention inside the cells were also determined using Ligase IV knock out (KO) cell line N114 compared to the wild type Nalm6 (Table 2, FIGS. 5C, D, E and F). […] Table 1 showing IC50 of SCR7 derivatives in cancer cell lines Nalm6 and HeLa. IC50 was calculated using GraphPad Prism software from the percentage of viable cells following treatment with the compounds at 48 h. Table 2 showing IC50 of SCR116 and SCR132 in a panel of 16 cancer cell lines.

[1] = system: V(D)J recombination in Nalm6 (pGG49); test: V(D)J recombination in Nalm6 using pGG49; format: cell-based; conditions: for Fold reduction in recombination efficiency: vs vehicle control
Procedure: Evaluation of efficiency of V(D)J recombination following treatment with SCR116 and SCR132 was carried out as depicted in FIGS. 6(A-C). Tables 4 and 5 summarize the effect of SCR116 (1 and 2 μM) and SCR132 (0.5 and 1 μM) on V(D)J recombination in Nalm6 using pGG49 and pGG51, respectively.

Raji = test: Cytotoxicity in Raji; format: cell-based; conditions: Homo sapiens, Raji; Table 2; read-out: IC50 in cancer cell lines, Raji
Procedure: as §1

[2] = 10 days dose ranging toxicity study; format: in vivo, Swiss albino mice; conditions: for Hemoglobin, MCHC, total leukocyte count and platelets: after 10 days of dose-ranging study; for Body weight: oral 80, 160 and 320 mg/kg b.wt., male and female, days 1, 8, 15, 22
Procedure: FIG. 12 depicts 10 days dose ranging toxicity studies of SCR116 and SCR132 (A) Body weight analyses of mice on 1, 8, 15 and 22 days after oral administration of low, medium and high concentrations of SCR116 and SCR132 (80, 160 and 320 mg/kg b.wt. respectively) in male. Mice treated with methyl cellulose served as vehicle control; and (B) Body weight analyses of mice on 1, 8, 15 and 22 days after oral administration of SCR116 and SCR132 (80, 160 and 320 mg/kg b.wt. respectively) in female.
FIG. 13 depicts the blood parameters analysis of Swiss albino mice after 10 days of dose-ranging study after treating with SCR116 and SCR132. A. RBC (n=3). B. Hemoglobin (n=3). C. MCHC (n=3). D. Total leukocyte count (n=3). E. Platelet count (n=3) (ns: not significant, *p<0.05: **p<0.005).

MCF7 = test: Cytotoxicity in MCF7; format: cell-based; conditions: Homo sapiens, MCF7; Table 2; read-out: IC50 in cancer cell lines, MCF7
Procedure: as §1

HCT116 derived xenograft = test: Mouse xenograft model, HCT116; format: in vivo
[3] = system: Erlich Ascites Carcinoma (EAC) tumor; test: Mice allograft model, Erlich Ascites Carcinoma (EAC); format: in vivo; conditions: for Tumor progression: intraperitoneal; for Tumor progression / Tumor load: alternate days; for Tumor load: oral, 8 doses, pilot
Procedure: The compounds of the present disclosure were evaluated for the anti-cancer efficacy starting from lower concentrations using Mice allograft model. Mice allograft model was developed by injecting Erlich Ascites Carcinoma (EAC) cell lines in the thigh region of the mice followed by treatment with the compounds via intraperitoneal and oral routes on alternate days (FIG. 9C).
The effect of oral dose of the compounds of the present disclosure on mice Erlich Ascites Carcinoma (EAC) and Dalton's Lymphoma (DLA) tumors were also evaluated (FIGS. 10A-F).

[4] = Homo sapiens, HeLa, 48 h, Table 1, 48 h

Row | Structure (SMILES) | 53BP1 foci (53BP1 foci in N114) | Inhibition of end joining (in words) (rat testicular extracts) | Inhibition of end joining (no joined product observed) (rat testicular extracts) | End joining after Ligase IV added back to inhibited testicular extract (rat testicular extracts) | IC50 (HeLa; [4]) [µM] | IC50 (HeLa; Homo sapiens, HeLa, Table 2) [µM] | Recombination efficiency (CA/A) ×100 ([1]; 1 μM) | Fold reduction in recombination efficiency ([1]; 1 μM) [fold] | IC50 (Raji) [µM] | Hemoglobin, MCHC, total leukocyte count and platelets [2] | Body weight [2] | IC50 (MCF7) [µM] | Tumor volume (HCT116 derived xenograft) | further results
1 | Nc1nc(S)nc(O)c1/N=C/c1ccc([N+](=O)[O-])s1 [Compound 16, (E)-6-amino-2-mercapto-5-(((5-nitrothiophen-2-yl)methylene)amino)pyrimidin-4-ol] | no significant increase in the number of 53BP1 foci | complete inhibition of end joining | showed inhibition of end joining | joining efficiency was restored | 5.92 | 5 | 0.050 | 5.2 | 4.37 | no significant difference in hemoglobin, MCHC, total leukocyte count and platelets | no significant change in body weight | 10 | significant reduction in tumor volume | Recombination efficiency (CA/A) ×100 ([1]; 2 μM): 0.013; Fold reduction in recombination efficiency ([1]; 2 μM, listed as SCR116): 20 fold and 20.0 fold; RBC count ([2]; low doses, values still within the normal range): significant difference in RBC count; Tumor progression ([3]; 10 mg/kg): inhibition of tumor progression; Tumor load ([3]; 10 and 30 mg/kg): reduced tumor load; Tumor size ([3]; selected oral dose 10 mg/kg): significant reduction in tumor size
2 | Nc1nc(S)nc(O)c1/N=C/c1sc(Cl)nc1Cl [Compound 32, (E)-6-amino-5-(((2,4-dichlorothiazol-5-yl)methylene)amino)-2-mercaptopyrimidin-4-ol] | no significant increase in the number of 53BP1 foci | complete inhibition of end joining | showed inhibition of end joining | joining efficiency was restored | 2.08 | 2 | 0.009 | 31.1 | 1.59 | no significant difference in hemoglobin, MCHC, total leukocyte count and platelets | no significant change in body weight | 5 | significant reduction in tumor volume | IC50 (HeLa; Table 2, listed as SCR132): 2.08 µM; Recombination efficiency (CA/A) ×100 ([1]; 0.5 μM): 0.030; Fold reduction in recombination efficiency ([1]; 0.5 μM): 9.3 fold; Tumor progression ([3]; 5 mg/kg): inhibition of tumor progression; Tumor load ([3]; 5 and 15 mg/kg): reduced tumor load; Tumor size ([3]; selected oral dose 15 mg/kg): significant reduction in tumor size
